US10350210B2, “EGFR and ALK dual inhibitor” (PRECEDO PHARMACEUTICALS CO., LTD, priority 2015, dated 2019)

Legend:
NCI-H1975 = assay: Growth of cancer cells (Cell Titer-Glo viability), NCI-H1975; type: cell-based; conditions: Homo sapiens; NCI-H1975 (EGFR L858R/T790M double mutant), 72 hrs
How it was run: (§1)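 Cells are counted as viable by CellTiter-Glo chemiluminescence. Murine BaF3 lines depend on a stably transfected TEL-fused kinase after IL-3 withdrawal, and the NSCLC lines express mutant EGFR.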

PC-9 = assay: Growth of cancer cells (Cell Titer-Glo viability), PC-9; type: cell-based; conditions: Homo sapiens; PC-9 (EGFR delE746_A750 mutant), 72 hrs
How it was run: as §1

A431 = assay: Growth of cancer cells (Cell Titer-Glo viability), A431; type: cell-based; conditions: Homo sapiens, A-431; A431 (wild-type EGFR), 72 hrs; read-out: GI50
CHO = assay: Cell growth (Cell Titer-Glo viability), CHO; type: cell-based, Chinese hamster; conditions: Cricetulus griseus; CHO Chinese hamster ovary cell, 72 hrs; read-out: GI50
CHL = assay: Cell growth (Cell Titer-Glo viability), CHL; type: cell-based, Chinese hamster; conditions: Cricetulus griseus; CHL Chinese hamster lung cell, 72 hrs; read-out: GI50
NCI-H460 = assay: Growth of cancer cells (Cell Titer-Glo viability), NCI-H460; type: cell-based; conditions: Homo sapiens; NCI-H460 (wild-type EGFR), 72 hrs
Excerpt: (§2) By testing the effect of the novel kinase inhibitors on the proliferation of cancer cells, the selectivity of the compounds of the present disclosure in inhibiting the proliferation of cancer cells was further assessed. In this example, human non-small cell lung cancer cell NCI-H1975 (expressing EGFR L858R/T790M double mutant gene), human skin squamous carcinoma cell A431 (expressing wild-type EGFR gene), non-small cell lung cancer NCI-H3255 (expressing EGFR L858R mutant gene), non-small cell lung cancer cell NCI-H3122 (expressing ALK gene), human non-small cell lung cancer cell A549 (expressing wild-type EGFR gene), human non-small cell lung cancer cell NCI-H2122 (expressing wild-type EGFR gene), human non-small cell lung cancer cell NCI-H460 (expressing wild-type EGFR gene), human non-small cell lung cancer cell PC-9 (expressing EGFR delE746_A750 mutant gene), Chinese hamster ovary cell CHO (Cricetulus griseus, hamster, Chinese, ovary), Chinese hamster lung cell CHL, human non-small cell lung cancer cell HCC827 (expressing mutant EGFR del19 gene), human lung adenocarcinoma cell HCC4006 (expressing mutant EGFR del19 gene), human non-small cell lung cancer cell NCI-H2228 (expressing wild-type ALK gene), and mouse primary B cell BaF3 were used, and the above cells were all purchased from ATCC (US). In addition, mouse BaF3-TEL-ALK (stably expressing ALK kinase), mouse BaF3-ALK-F1174L (stably expressing mutant ALK F1174L kinase), mouse BaF3-NPM-ALK (stably expressing ALK kinase), mouse BaF3-TEL-EGFR (stably expressing EGFR kinase), mouse BaF3-TEL-EGFR-T790M (stably expressing EGFR T790M mutant kinase), mouse BaF3-FL-EGFR-Del19 (stably expressing EGFR delE746_A750 mutant kinase), mouse BaF3-TEL-EGFR-L858R (stably expressing EGFR L858R mutant kinase), mouse BaF3-FL-EGFR-T790M-L858R (stably expressing EGFR T790M/L858R mutant kinase), mouse BaF3-TEL-INSR (stably expressing INSR protein), mouse BaF3-TEL-IGF1R (stably expressing IGF1R Protein), mouse BaF3-EML4-ALK (stably expressing EML4-ALK Protein), mouse BaF3-TEL-JAK3 (stably expressing JAK3 kinase protein), mouse BaF3-TEL-CSF1R (stably expressing CSF1R protein), and mouse BaF3-TEL-ALK-F1196M (stably expressing ALK F1196M mutant kinase) were also used in this example. The above cell lines were all established by our laboratory via the following process: kinase proteins or protein domain sequences of human ALK, ALK F1174L, EGFR, EGFR T790M, EGFR delE746_A750, EGFR L858, EGFR T790M/L858R, INSR, IGF1R, EML4-ALK, JAK3, CSF1R, ALK F1196M were amplified respectively by PCR, and were respectively inserted into MSCV-Puro vector (Clontech) with N-terminal TEL fragments and/or NPM fragments and/or TPR fragments; the resultants were stably transfected into mouse BaF3 cells by the means of retrovirus, and the IL-3 growth factors were removed, and eventually the ALK, ALK F1174L, EGFR, EGFR T790M, EGFR delE746_A750, EGFR L858, EGFR T790M/L858R, INSR, IGF1R, EML4-ALK, JAK3, CSF1R, ALK F1196M-transferred protein dependent cell lines were obtained.
(§3) The number of viable cells was determined quantitatively by a microplate reader using Cell Titer-Glo® (Promega, US) chemiluminescence cell viability assay kit.

NCI-H2122 = assay: Growth of cancer cells (Cell Titer-Glo viability), NCI-H2122; type: cell-based; conditions: Homo sapiens; NCI-H2122 (wild-type EGFR), 72 hrs
NCI-H3255 = assay: Growth of cancer cells (Cell Titer-Glo viability), NCI-H3255; type: cell-based; conditions: Homo sapiens; NCI-H3255 (EGFR L858R mutant), 72 hrs
Excerpt: as §2, §3

HCC827 = assay: Growth of cancer cells (Cell Titer-Glo viability), HCC827; type: cell-based; conditions: Homo sapiens; HCC827 (mutant EGFR del19), 72 hrs
How it was run: (§4)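 Antiproliferative assay in engineered BaF3 lines made IL-3-independent by retroviral TEL-fused kinase constructs, and in cancer cell lines HCC827 (EGFR del19) and NCI-H3255 (EGFR L858R). Viable cells quantified by Cell Titer-Glo luminescence.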

HCC4006 = assay: Growth of cancer cells (Cell Titer-Glo viability), HCC4006; type: cell-based; conditions: Homo sapiens; HCC4006 (mutant EGFR del19), 72 hrs
Excerpt: as §2, §3

NCI-H3122 = assay: Growth of cancer cells (Cell Titer-Glo viability), NCI-H3122; type: cell-based; conditions: Homo sapiens; NCI-H3122 (expressing ALK gene), 72 hrs; read-out: GI50
NCI-H2228 = assay: Growth of cancer cells (Cell Titer-Glo viability), NCI-H2228; type: cell-based; conditions: Homo sapiens; NCI-H2228 (wild-type ALK), 72 hrs
BaF3 = assay: Cell growth (Cell Titer-Glo viability), BaF3; type: cell-based; conditions: BaF3 mouse primary B cell, 72 hrs
BaF3-TEL-ALK = assay: Cell growth (Cell Titer-Glo viability), BaF3-TEL-ALK; type: cell-based; conditions: Mus musculus; BaF3-TEL-ALK (stably expressing ALK kinase), 72 hrs
How it was run: as §4

BaF3-ALK-F1174L = assay: Cell growth (Cell Titer-Glo viability), BaF3-ALK-F1174L; type: cell-based; conditions: Mus musculus; BaF3-ALK-F1174L (mutant ALK F1174L kinase), 72 hrs
How it was run: as §4

BaF3-NPM-ALK = assay: Cell growth (Cell Titer-Glo viability), BaF3-NPM-ALK; type: cell-based; conditions: Mus musculus; BaF3-NPM-ALK (stably expressing ALK kinase), 72 hrs
BaF3-TEL-EGFR = assay: Cell growth (Cell Titer-Glo viability), BaF3-TEL-EGFR; type: cell-based; conditions: Mus musculus; BaF3-TEL-EGFR (stably expressing EGFR kinase), 72 hrs
Excerpt: as §2, §3

BaF3-TEL-EGFR-T790M = assay: Cell growth (Cell Titer-Glo viability), BaF3-TEL-EGFR-T790M; type: cell-based; conditions: Mus musculus; BaF3-TEL-EGFR-T790M (EGFR T790M mutant kinase), 72 hrs
Excerpt: as §2, §3

BaF3-FL-EGFR-Del19 = assay: Cell growth (Cell Titer-Glo viability), BaF3-FL-EGFR-Del19; type: cell-based; conditions: Mus musculus; BaF3-FL-EGFR-Del19 (EGFR delE746_A750 mutant kinase), 72 hrs
Excerpt: as §2, §3

A549 = assay: Growth of cancer cells (Cell Titer-Glo viability), A549; type: cell-based; conditions: Homo sapiens; A549 (wild-type EGFR), 72 hrs
BaF3-TEL-INSR = assay: Cell growth (Cell Titer-Glo viability), BaF3-TEL-INSR; type: cell-based; conditions: Mus musculus; BaF3-TEL-INSR (stably expressing INSR protein), 72 hrs
Excerpt: as §2, §3

BaF3-TEL-IGF1R = assay: Cell growth (Cell Titer-Glo viability), BaF3-TEL-IGF1R; type: cell-based; conditions: Mus musculus; BaF3-TEL-IGF1R (stably expressing IGF1R protein), 72 hrs
Excerpt: as §2, with “The above cell lines were all established by our laboratory via the following process: kinase proteins or protein domain sequences of human ALK, ALK F1174L, EGFR, EGFR T790M, EGFR delE746_A750, EGFR L858, EGFR T790M/L858R, INSR, IGF1R, EML4-ALK, JAK3, CSF1R, ALK F1196M were amplified respectively by PCR, and were respectively inserted into MSCV-Puro vector (Clontech) with N-terminal TEL fragments and/or NPM fragments and/or TPR fragments; the resultants were stably transfected into mouse BaF3 cells by the means of retrovirus, and the IL-3 growth factors were removed, and eventually the ALK, ALK F1174L, EGFR, EGFR T790M, EGFR delE746_A750, EGFR L858, EGFR T790M/L858R, INSR, IGF1R, EML4-ALK, JAK3, CSF1R, ALK F1196M-transferred protein dependent cell lines were obtained.” left out
as §3

BaF3-EML4-ALK = assay: Cell growth (Cell Titer-Glo viability), BaF3-EML4-ALK; type: cell-based; conditions: Mus musculus, Ba/F3 EML4-ALK; BaF3-EML4-ALK (stably expressing EML4-ALK protein), 72 hrs
Excerpt: as §2, §3

BaF3-TEL-JAK3 = assay: Cell growth (Cell Titer-Glo viability), BaF3-TEL-JAK3; type: cell-based; conditions: Mus musculus; BaF3-TEL-JAK3 (stably expressing JAK3 kinase protein), 72 hrs
Excerpt: as §2, §3

| SMILES | GI50 (NCI-H1975) [nM] | GI50 (PC-9) [nM] | GI50 (A431) [nM] | GI50 (CHO) [nM] | GI50 (CHL) [nM] | GI50 (NCI-H460) [nM] | GI50 (NCI-H2122) [nM] | GI50 (NCI-H3255) [nM] | GI50 (HCC827) [nM] | GI50 (HCC4006) [nM] | GI50 (NCI-H3122) [nM] | GI50 (NCI-H2228) [nM] | GI50 (BaF3) [nM] | GI50 (BaF3-TEL-ALK) [nM] | GI50 (BaF3-TEL-EGFR-T790M) [nM] | GI50 (A549) [nM] | GI50 (BaF3-TEL-INSR) [nM] | GI50 (BaF3-TEL-IGF1R) [nM] | GI50 (BaF3-EML4-ALK) [nM] | GI50 (BaF3-TEL-JAK3) [nM] | further results |
| --- | --- | --- | --- | --- | --- | --- | --- | --- | --- | --- | --- | --- | --- | --- | --- | --- | --- | --- | --- | --- | --- |
| C=CC(=O)Nc1cc(Nc2ncc(C)c(Nc3ccccc3S(=O)(=O)C(C)C)n2)c(OC)cc1N1CCC(N2CCN(C)CC2)CC1 [Compound 24, N-(5-(4-(2-(isopropylsulfonyl)phenylamino)-5-methylpyrimidin-2-ylamino)-4-methoxy-2-(4-(4-methylpiperazin-1-yl)piperidin-1-yl)phenyl)acrylamide] | 59 | 50 | 440 | 1700 | 660 | 680 | 230 | 130 | 6.2 | 14 | < 0.3 | 330 | 1600 | < 0.3 | 100 | – | – | – | – | – | GI50 (BaF3-ALK-F1174L): 16 nM; GI50 (BaF3-NPM-ALK): 2 nM; GI50 (BaF3-TEL-EGFR): 810 nM; GI50 (BaF3-FL-EGFR-Del19): 2 nM |
| CCC(=O)Nc1cc(Nc2ncc(Cl)c(Nc3ccccc3S(=O)(=O)C(C)C)n2)c(OC)cc1N1CCC(N2CCN(C)CC2)CC1 [Compound 30, N-(5-(5-chloro-4-(2-(isopropylsulfonyl)phenylamino)pyrimidin-2-ylamino)-4-methoxy-2-(4-(4-methylpiperazin-1-yl)piperidin-1-yl)phenyl)propionamide] | 880 | 53 | 840 | 1900 | 730 | 440 | 150 | 640 | 150 | 260 | < 0.3 | 280 | 470 | < 0.3 | 230 | – | – | – | – | – | GI50 (BaF3-ALK-F1174L): 73 nM; GI50 (BaF3-NPM-ALK): < 3 nM; GI50 (BaF3-TEL-EGFR): 410 nM; GI50 (BaF3-FL-EGFR-Del19): 120 nM |
| C=CC(=O)Nc1cc(Nc2ncc(Cl)c(Nc3ccccc3C(=O)NC)n2)c(OC)cc1N1CCN(C)CC1 [Compound 64, 2-(2-(5-acrylamido-2-methoxy-4-(4-methylpiperazin-1-yl)phenylamino)-5-chloropyrimidin-4-ylamino)-N-methylbenzamide] | 50 | 7.2 | – | – | – | – | – | – | 13 | – | 4.4 | – | 2900 | 10 | 28 | 370 | 2.3 | 14 | 13 | 59 | – |
| C=CC(=O)Nc1cc(Nc2ncc(Cl)c(Nc3ccccc3C(=O)NC)n2)c(OC)cc1N1CCN(CC)CC1 [Compound 65] | 5.1 | 4.2 | – | – | – | – | – | – | 13 | – | 3.5 | – | 2100 | 3.1 | 30 | 220 | < 0.3 | 2 | 8.6 | 45 | – |
| C=CC(=O)Nc1cc(Nc2ncc(Cl)c(Nc3ccccc3C(=O)NC)n2)c(OC)cc1N1CCC(N2CCOCC2)CC1 [Compound 67, 2-(2-(5-acrylamido-2-methoxy-4-(4-morpholinylpiperidin-1-yl)phenylamino)-5-chloropyrimidin-4-ylamino)-N-methylbenzamide] | 14 | 9.6 | – | – | – | – | – | – | 14 | – | 4.4 | – | 5400 | 13 | 28 | 450 | 1.8 | 7.7 | 35 | 110 | – |
